Experimental data: patent US10640532B2, “Crystal of reduced glutathione” (University Public Corporation Osaka, priority 2015, dated 2020)
Where two headings read alike, the source gives them in different places.

Conditions: storage 40° C., 75% relative humidity
Protocol: The amorphous solid of a reduced glutathione-sodium salt obtained in (1) of Example 1, and the final crystal of a reduced glutathione-sodium salt obtained in Example 1 were compared for hygroscopicity under the following conditions.
Storage conditions: 40° C., 75% relative humidity (adjusted with saturated brine)
Measurement conditions: About 0.3 g of a sample was weighed with a precision balance, and charged into a plastic container. After being stored under the foregoing storage conditions, the sample was weighed, and the percentage of weight change was calculated.
The measured sample weight at each time point is relative to the 100% initial weight at the start of testing. In table 5, the symbol “-” means no measurement.

| Compound | weight (%) relative to 100% initial weight (elapsed time 0 h) [%] | weight (%) relative to 100% initial weight (elapsed time 0.25 h) [%] | weight (%) relative to 100% initial weight (elapsed time 2 h) [%] | weight (%) relative to 100% initial weight (elapsed time 4 h) [%] | weight (%) relative to 100% initial weight (elapsed time 10 h) [%] | weight (%) relative to 100% initial weight (elapsed time 20 h) [%] | weight (%) relative to 100% initial weight (elapsed time 48 h) [%] | hygroscopicity / preservation stability compared with the amorphous solid (up to 48 h) |
| --- | --- | --- | --- | --- | --- | --- | --- | --- |
| N[C@@H](CCC(=O)N[C@@H](CS)C(=O)NCC(=O)O)C(=O)[O-].[Na+] [Amorphous, reduced glutathione-sodium salt] | 100 | 100.7 | 104.1 | 106.2 | 110.2 | 117.3 | 125.8 |  |
| N[C@@H](CCC(=O)N[C@@H](CS)C(=O)NCC(=O)O)C(=O)[O-].[Na+] [Crystal, reduced glutathione-sodium salt] | 100 |  | 100.7 |  | 101.9 | 102 | 102.9 | less likely to absorb moisture than the amorphous solid |
